Measured values as given in patent US20140038950A1, “PLANT TREATMENT” (priority 2012, published 2014).

Assays:
common dogwood diseases = test: Drench experiments on flowering dogwoods; format: in vivo; details: soil drench; compared with fluoxastrobin (personal experience)
Source text: Evidence of how far you have to stray from my preferred formulation and application plan before the invention stops being useful (in other words, what are the boundaries of this invention). Not all strobilurins have xylem mobility only azoxystrobin and fluoxastrobin show this ability.

[1] = Direct trunk injection, phytotoxicity; format: in vivo; details: movement into xylem vessels
Source text: For direct trunk injections, the azoxystrobin fungicide is compatible with the physiology of the plants. […] Other formulations such as fluoxastrobin are not advised for direct trunk injections.

With CO/C=C(/C(=O)OC)c1ccccc1Oc1cc(Oc2ccccc2C#N)ncn1 [azoxystrobin] the “control of common dogwood diseases” value (common dogwood diseases) was “excellent season long control” and the phytotoxicity [1] was “without phytotoxicity”.
